Experiment: gradient 5% acetonitrile 3 min, to 50% in 2 min, to 85% in 15 min, held 3 min, 100 µL/min
Settings: column: Zorbax Extend-C18 2.1 x 50 mm; eluents: water / acetonitrile, 0.1% formic acid
How it was run: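 The mobile phases were water and acetonitrile, each with 0.1% formic acid, pumped at 100 μL/min through a Zorbax Extend-C18 column (2.1 × 50 mm, 1.8 μm). Pure standards were injected as mixtures of ~100 molecules and detected by a quadrupole time-of-flight mass spectrometer in positive and negative ionization mode. Retention time came from computationally picked adduct peaks, each inspected by hand.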

RP-LC retention time [s] | Compound
611 | Cn1c(=O)sc2cc(S(=O)(=O)N3CCC(C(=O)NCc4ccccn4)CC3)ccc21
839 | O=C(c1ccc[nH]1)N1CCN(C(=O)c2nnn3c2COC(c2ccc(Cl)cc2)C3)CC1 (stereo not given)
662 | CCNC(=O)C1CCN(c2nc3ncn(CC(=O)Nc4ccc(OCC)cc4)c(=O)c3s2)CC1
774 | CC(=O)N(C)c1ccc(NC(=O)c2c(-c3ccccc3Cl)noc2C)cc1
834 | O=C(Cn1cccc(-c2nc(-c3ccc(F)cc3)no2)c1=O)NC1CCCCC1
749 | CCCN(CCC)CCCNC(=O)C1CCCN(c2ncc(-c3ccc(F)cc3)cn2)C1 (stereo not given)
842 | Cc1cccc(-n2c(=O)c3c(cc(C)n3C)n(CC(=O)Nc3ccccc3Cl)c2=O)c1
878 | O=C(Cn1c(=O)oc2ccc(Cl)cc21)NC1CCCCC1
929 | CC(C)c1ccc(NC(=O)C2CC(=O)N(c3cccc(NC(=O)C4CCC4)c3)C2)cc1 (stereo not given)
815 | CC1CCN(C(=O)CN2C(=O)C3CCCCN3c3ccc(C(=O)N4CCCC4)cc32)CC1 (stereo not given)
626 | COc1ccc2nc(SCC(=O)N3CCC(C(N)=O)CC3)nc(C)c2c1
803 | CC1=C(c2ccc(C)cc2)S(=O)(=O)N=C1N1CCCN(C(=O)NCc2ccco2)CC1
680 | COCc1nc2cccnc2n1C1CCN(C(=O)Nc2ccccc2)CC1
926 | CCOC(=O)C1CCN(C(c2cccnc2)c2c(NC(=O)c3ccco3)sc(C)c2C)CC1 (stereo not given)
910 | CC(C(=O)Nc1ccc(Cl)cc1)C1CCN(C(=O)Nc2ccccc2)CC1 (stereo not given)
1040 | Cc1ccc(CNC(=O)C2(C)CCCN(C(=O)Nc3ccc(Br)cc3)C2)cc1 (stereo not given)
880 | Cc1nc(-c2csc(S(=O)(=O)N3CCCC(C(=O)Nc4ccc5c(c4)OCCO5)C3)c2)no1 (stereo not given)
1030 | COc1ccccc1N1CCN(c2cc(SCC(=O)Nc3cccc(Cl)c3)ncn2)CC1
797 | COc1ccc(OC)c(NC(=O)CSC2CCc3ccccc3NC2=O)c1 (stereo not given)
692 | CC(C)c1ccc2c(c1)-c1ccccc1S(=O)(=O)N2CC(=O)NCCN1CCOCC1
850 | COC(=O)c1ccc(NC(=O)C2c3cc(F)ccc3CCN2C(=O)OC)cc1 (stereo not given)
1050 | Cc1nc(-c2csc(S(=O)(=O)N3CCC(C(=O)N4c5ccccc5CC4C)CC3)c2)no1 (stereo not given)
1210 | Cc1cccc(-n2cc(C(=O)OCC(=O)OC(C)(C)C)c3ccccc3c2=O)c1
887 | CCc1cccc(NC(=O)N2C[C@@H](F)C[C@H]2C(=O)N2CCc3ccccc3C2)c1
1080 | CC1CCN(S(=O)(=O)c2cc(C(=O)NCc3ccc(Br)cc3)n(C)c2)CC1
638 | Cc1cc(C(=O)Nc2cccc(-c3ccc(N4CCOCC4)nn3)c2)c(C)o1
680 | Cc1ccc(C(=O)Nc2ccc(-c3nnc4n3CCCC4)cc2)s1

Second part, the molecule before the results:

Compound | RP-LC retention time [s]
COc1ccc(N2CCN(Cc3nc(-c4ccc(N5CCCC(C)C5)nc4)no3)CC2)cc1 (stereo not given) | 1020
Cn1nc2n(c1=O)CCN(C(=O)CC1=CCCCC1)CC2 | 656
CCCc1noc(-c2ccc(-n3ncc(C(=O)NCC)c3C)nc2)n1 | 808
O=C(c1ccc(OCC2CCN(C(=O)c3cccs3)CC2)cc1)N1CCOCC1 | 747
O=C(CCc1c(-c2ccccc2)nc2ccccn12)NCc1cccc(Cl)c1 | 681
COCC(=O)N1CCC2(CC1)NC(=O)N(CCc1ccccc1)C2=O | 631
Cc1ccc(CNC(=O)CCc2c(C)nn(-c3cc(N4CCCC4)ncn3)c2C)o1 | 745
CCOc1ccc(NS(=O)(=O)c2cc(-c3nc(C(C)(C)C)cs3)cs2)cc1 | 1240
CCn1nccc1-c1cccc(-c2noc(-c3cc4ccccc4oc3=O)n2)c1 | 1060
Cc1ccc(C)c(N2CCN(CC(O)c3ccc4c(c3)OCO4)CC2)c1 (stereo not given) | 732
Cc1nc(N2CCOCC2)cc(N2CCN(C(=O)c3cnn(-c4ccccc4)n3)CC2)n1 | 587
Cn1c(=O)c2nc(S(=O)(=O)CCC(=O)Nc3cc(F)ccc3F)n(C)c2n(C)c1=O | 730
Cc1noc(-c2ccc(OC3CN(C(=O)Cc4ccsc4)C3)cc2)n1 | 826
CN(CCc1ccccn1)c1ccc2c(c1)C(=O)c1ccccc1-2 | 662
Cn1nc(C2CCN(C(=O)c3ccc4ccccc4n3)CC2)c2c1CCOC2 | 669
CCCCN(CC)CCNC(=O)c1cn2c3c(ccc(Cl)c3c1=O)OCC2 | 758
CCc1noc(-c2cc(=O)n(CC(=O)Nc3ccccc3OC)c3ccccc23)n1 | 962
O=C(Cc1csc(NC(=O)c2ccsc2)n1)Nc1nc2c(s1)CCCC2 | 874
O=C(CN1CCN(Cc2ccccc2)C1=O)N1CCN(c2ccccc2F)CC1 | 824
COc1ccc(C2Cn3nnc(-c4nc(-c5cccc(C(F)(F)F)c5)no4)c3CO2)cc1 (stereo not given) | 1270
O=C(c1cccc(Cl)c1)N1N=C(c2ccco2)CC1c1ccco1 (stereo not given) | 1020

Compound | RP-LC retention time [s]
CCC(C)NC(=O)Nc1cc2c(cc1Oc1ccccc1)n(C)c(=O)n2C (stereo not given) | 853
Cc1c(S(=O)(=O)Nc2ccccc2)c(C)n(C)c1-c1nnc(C2CCC2)o1 | 870
O=C(NCc1ccccc1F)C1=C2CCCN2c2ccc(F)cc2S1(=O)=O | 868
Cc1ccc(Oc2nccnc2N2CCC(C(=O)NCCCN3CCOCC3)CC2)cc1 | 648
Cc1ccccc1-c1nnc(CSc2nnc(NC(=O)C(C)C)s2)o1 | 843
O=C(NC1CCCCC1)N1CCCCC1c1nncn1CC1CC1 (stereo not given) | 704
O=c1cc(-c2ccccc2)nc2n1CCN2Cc1ccccn1 | 658
O=C(CCNc1c(-c2ccccc2)nc2cnccn12)NCc1ccc(F)cc1 | 687
O=C(Nc1nc(-c2ccc([N+](=O)[O-])cc2)cs1)c1ccc2ncsc2c1 | 892
CC(C)CCNC(=O)CC1Sc2ncccc2N(CC(C)C)C1=O (stereo not given) | 868
Cc1ccc(-c2csc(NC(=O)c3sc(C)nc3C)n2)cc1 | 974
CC(C)N1CCC(CC(=O)N2CCc3c(c(-c4nc(-c5ccccc5)no4)nn3C)C2)CC1 | 654
CCn1c(C(=O)N2CCN(c3ccc(OC)cc3)CC2)cc2sccc21 | 973
O=C(CCc1nc2ccccc2[nH]1)NCC1CCOCC1 | 555
O=C(CSCc1ccccc1)N1CC(c2nc3ccccc3[nH]2)C1 | 573
Cc1nn2c(CNC(=O)c3cccc(Br)c3)c(C)nc2s1 | 662
O=S(=O)(c1cccc(-c2nc(-c3ccccc3)no2)c1)N1CCCC1 | 1130
CCCNC(=O)c1nc2cccnc2n(C)c1=O | 647
COCCOCC(=O)N1[C@@H]2CC[C@H]1CC(NC(=O)c1cnc(C)cn1)C2 (stereo not given in full) | 579
Cc1nc(-c2cnccn2)nc2c1CCC(=O)N2Cc1ccco1 | 683
Cc1ccc(Nc2c(-c3ccc(O)cc3)nc3cccc(C)n23)cc1 | 732

Compound | RP-LC retention time [s]
Cc1[nH]c2ccccc2c1C(=O)C(=O)N(C)c1ccccc1 | 767
CCC(=O)N1CCc2cc(C(=O)NCCC3=CCCCC3)ccc21 | 891
CCOc1ccc(CNC(=O)Cn2cnc3onc(C)c3c2=O)cc1 | 755
Cc1cc(C)n(-c2nc(C)c(C(=O)N(CCO)Cc3ccccc3)s2)n1 | 859
Cc1nc(COc2ccccc2)sc1C(=O)N1CCC(C(N)=O)CC1 | 925
Cc1cc(C)n(-c2ccc(C(=O)NCc3ccc(Cl)cc3)cn2)n1 | 990
Cn1cc2nc(SCC(=O)Nc3ccc(Cl)cc3F)n(CC3CC3)c(=O)c2n1 | 954
O=C(NCCCOc1cccc2cccnc12)c1cc(=O)c2ccccc2o1 | 648
Cc1cnc(C2CC2)n1CCNC(=O)C1CC=CC1 | 562
COC[C@@H]1CN(Cc2c(C)noc2C)C[C@H]1c1ccccn1 | 580
Cc1nc2nc3c(cn2n1)C(=O)CCC3 | 593
COc1ccc(-c2ccc(=O)n(Cc3nc(-c4ccccc4)no3)n2)cc1 | 954
CCC(CC)C(c1ccc(Nc2nc3ccccc3s2)cc1)n1cncn1 (stereo not given) | 1150
Cc1sc(-c2cc(C(F)(F)F)on2)cc1S(=O)(=O)N1CCCc2ccccc21 | 1300
CC(C)(C)c1ccc(OCC(=O)N(Cc2ccc(Br)o2)C2CCS(=O)(=O)C2)cc1 (stereo not given) | 1060
O=C(O)c1nnn(-c2ccc3c(c2)OCCO3)c1-c1cccnc1 | 568
O=C(NCc1[nH]nc2ccccc12)c1ccc2c(c1)OCO2 | 704
CCNC(=O)c1nc(C(=O)NCc2ccc(C)cc2)cs1 | 811
Cc1ccc(-c2cc3c(=O)n(Cc4noc(CN5CCOCC5)n4)ccn3n2)cc1 | 733
Cc1ccc(S(=O)(=O)NC(c2nc(-c3ccc(-c4csc(C)n4)cc3)no2)C(C)C)cc1 (stereo not given) | 1160
CCc1ccc(CNC(=O)c2cn3c(n2)CCCC3)cc1 | 646
